Measurements from ChEMBL document CHEMBL1158386, “Synthesis and biological evaluation of some thiazolidinone derivatives of steroid as antibacterial agents” (2009).
Values after ≈ are worked out from the molar mass of the structure shown.

Legend:
Staphylococcus aureus [1] = experiment: Antibacterial activity against Staphylococcus aureus at 100 ug/ml after 18 hrs by disk diffusion method; assay type: functional; details: read-out: IZ
[2] = tested on: Salmonella enterica subsp. enterica; experiment: Antibacterial activity against Salmonella Typhimurium at 100 ug/ml after 18 hrs by disk diffusion method; assay type: functional, Salmonella enterica subsp. enterica serovar Typhimurium; details: read-out: IZ
Streptococcus pyogenes [3] = experiment: Antibacterial activity against Streptococcus pyogenes at 100 ug/ml after 18 hrs by disk diffusion method; assay type: functional; details: read-out: IZ
Escherichia coli [4] = experiment: Antibacterial activity against Escherichia coli at 100 ug/ml after 18 hrs by disk diffusion method; assay type: functional; details: read-out: IZ
Staphylococcus aureus [5] = experiment: Antibacterial activity against Staphylococcus aureus after 18 hrs by macro dilution test; assay type: functional
Streptococcus pyogenes [6] = experiment: Antibacterial activity against Streptococcus pyogenes after 18 hrs by macro dilution test; assay type: functional
Escherichia coli [7] = experiment: Antibacterial activity against Escherichia coli after 18 hrs by macro dilution test; assay type: functional
[8] = tested on: Salmonella enterica subsp. enterica; experiment: Antibacterial activity against Salmonella Typhimurium after 18 hrs by macro dilution test; assay type: functional, Salmonella enterica subsp. enterica serovar Typhimurium
Escherichia coli [9] = experiment: Antibacterial activity against Escherichia coli at 30 ug/disk after 18 hrs by disk diffusion method; assay type: functional; details: read-out: IZ
Streptococcus pyogenes [10] = experiment: Antibacterial activity against Streptococcus pyogenes at 30 ug/disk after 18 hrs by disk diffusion method; assay type: functional; details: read-out: IZ
Staphylococcus aureus [11] = experiment: Antibacterial activity against Staphylococcus aureus at 30 ug/disk after 18 hrs by disk diffusion method; assay type: functional; details: read-out: IZ
[12] = tested on: Salmonella enterica subsp. enterica; experiment: Antibacterial activity against Salmonella Typhimurium at 30 ug/disk after 18 hrs by disk diffusion method; assay type: functional, Salmonella enterica subsp. enterica serovar Typhimurium; details: read-out: IZ

MIC (Staphylococcus aureus [5]) [µg/mL]	MIC (Streptococcus pyogenes [6]) [µg/mL]	MIC (Escherichia coli [7]) [µg/mL]	MIC [8] [µg/mL]	SMILES	zone of inhibition at 100 µg/mL (Staphylococcus aureus [1]) [mm]	zone of inhibition at 100 µg/mL [2] [mm]	zone of inhibition at 100 µg/mL (Streptococcus pyogenes [3]) [mm]	zone of inhibition at 100 µg/mL (Escherichia coli [4]) [mm]	zone of inhibition at 30 µg/disc (Escherichia coli [9]) [mm]	zone of inhibition at 30 µg/disc (Streptococcus pyogenes [10]) [mm]	zone of inhibition at 30 µg/disc (Staphylococcus aureus [11]) [mm]	zone of inhibition at 30 µg/disc [12] [mm]
				CC(C)CCC[C@@H](C)[C@H]1CC[C@H]2[C@@H]3C/C(=N/NC(=S)NC4CCCC4)[C@H]4CCCC[C@]4(C)[C@H]3CC[C@]12C	9.4	10.4	10.2	12.3				
				CC(C)CCC[C@@H](C)[C@H]1CC[C@H]2[C@@H]3C/C(=N/NC(=S)NC4CCCC4)[C@H]4C[C@@H](Cl)CC[C@]4(C)[C@H]3CC[C@]12C	11.5	11.2	10.2	11.7				
32 (≈ 53.1 µM)	32 (≈ 53.1 µM)	64 (≈ 106 µM)	64 (≈ 106 µM)	CC(C)CCC[C@@H](C)[C@H]1CC[C@H]2[C@@H]3C/C(=N/N=C4\SCC(=O)N4C4CCCC4)[C@H]4C[C@@H](Cl)CC[C@]4(C)[C@H]3CC[C@]12C	20.4	19.4	21.4	22.5				
64 (≈ 102 µM)	32 (≈ 51.1 µM)	32 (≈ 51.1 µM)	64 (≈ 102 µM)	CC(=O)O[C@H]1CC[C@@]2(C)[C@H](C1)/C(=N\N=C1/SCC(=O)N1C1CCCC1)C[C@@H]1[C@@H]2CC[C@]2(C)[C@@H]([C@H](C)CCCC(C)C)CC[C@@H]12	18.5	19.6	21.4	22.8				
128 (≈ 225 µM)	128 (≈ 225 µM)	128 (≈ 225 µM)	128 (≈ 225 µM)	CC(C)CCC[C@@H](C)[C@H]1CC[C@H]2[C@@H]3C/C(=N/N=C4\SCC(=O)N4C4CCCC4)[C@H]4CCCC[C@]4(C)[C@H]3CC[C@]12C	14.5	13.6	15.2	14.2				
				CC(=O)O[C@H]1CC[C@@]2(C)[C@H](C1)/C(=N\NC(=S)NC1CCCC1)C[C@@H]1[C@@H]2CC[C@]2(C)[C@@H]([C@H](C)CCCC(C)C)CC[C@@H]12	12.6	10.4	11.4	13.3				

SMILES	MIC (Staphylococcus aureus [5]) [µg/mL]	MIC (Streptococcus pyogenes [6]) [µg/mL]	MIC (Escherichia coli [7]) [µg/mL]	MIC [8] [µg/mL]	zone of inhibition at 100 µg/mL (Staphylococcus aureus [1]) [mm]	zone of inhibition at 100 µg/mL [2] [mm]	zone of inhibition at 100 µg/mL (Streptococcus pyogenes [3]) [mm]	zone of inhibition at 100 µg/mL (Escherichia coli [4]) [mm]	zone of inhibition at 30 µg/disc (Escherichia coli [9]) [mm]	zone of inhibition at 30 µg/disc (Streptococcus pyogenes [10]) [mm]	zone of inhibition at 30 µg/disc (Staphylococcus aureus [11]) [mm]	zone of inhibition at 30 µg/disc [12] [mm]
CC1(C)S[C@@H]2[C@H](NC(=O)[C@H](N)c3ccc(O)cc3)C(=O)N2[C@H]1C(=O)O [AMOXICILLIN]	32 (≈ 87.6 µM)	32 (≈ 87.6 µM)	32 (≈ 87.6 µM)	32 (≈ 87.6 µM)					20.2	18.2	17	17.2
